Assay results published in publication PMC11214487, “YZL-51N functions as a selective inhibitor of SIRT7 by NAD^+ competition to impede DNA damage repair” (iScience, 2024).

Columns and labels:
SIRT6 [1] = molecular target: T1, SIRT6 (Homo sapiens, UniProt Q8N6T7); assay: Protein thermal shift assay; type: binding; conditions: 10 μM
Method: (§1) The mixture containing SIRT1, SIRT6 or SIRT7 proteins, SYPRO Orange, compounds and buffer (100 mM Tris-HCl, 40 mM NaCl, 10 mM MgCl2, pH=7.4) were added into 0.2 mL PCR tubes for a total volume of 20 μL and placed in an ABI ViiA 7 Real-time PCR System. The temperature ranging from 35.0 to 75.0°C was increased at a rate of 0.5°C/s and the fluorescence intensity was monitored in the ROX channel.

SIRT7 [2] = molecular target: T2, SIRT7 (Homo sapiens, UniProt Q9NRC8); assay: Protein thermal shift assay; type: binding; conditions: 10 μM
T2 construct: His-tagged full length SIRT7 protein expression from BL21 bacterial cells; His; made in house; host or cells: E. coli BL21
T2 sequence (Q9NRC8 1-400): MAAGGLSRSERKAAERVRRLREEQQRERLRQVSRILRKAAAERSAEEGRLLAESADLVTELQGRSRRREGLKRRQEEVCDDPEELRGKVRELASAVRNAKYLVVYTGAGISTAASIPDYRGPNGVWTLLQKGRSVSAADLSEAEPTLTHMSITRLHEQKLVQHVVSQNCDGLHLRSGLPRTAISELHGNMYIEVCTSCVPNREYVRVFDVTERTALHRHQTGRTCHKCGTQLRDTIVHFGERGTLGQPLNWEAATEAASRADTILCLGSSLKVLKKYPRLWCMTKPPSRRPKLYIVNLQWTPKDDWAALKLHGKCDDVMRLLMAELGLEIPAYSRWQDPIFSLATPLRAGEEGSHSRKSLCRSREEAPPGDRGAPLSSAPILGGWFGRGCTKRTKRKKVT
Method: as §1

SIRT1 = molecular target: T3, SIRT1 (Homo sapiens, UniProt Q96EB6); assay: Protein thermal shift assay; type: binding; conditions: 10 μM
T3 construct: GST-SIRT1-193-741; GST; purchased Active Motif 7846-50; host or cells: E. coli
T3 sequence (Q96EB6 193-741): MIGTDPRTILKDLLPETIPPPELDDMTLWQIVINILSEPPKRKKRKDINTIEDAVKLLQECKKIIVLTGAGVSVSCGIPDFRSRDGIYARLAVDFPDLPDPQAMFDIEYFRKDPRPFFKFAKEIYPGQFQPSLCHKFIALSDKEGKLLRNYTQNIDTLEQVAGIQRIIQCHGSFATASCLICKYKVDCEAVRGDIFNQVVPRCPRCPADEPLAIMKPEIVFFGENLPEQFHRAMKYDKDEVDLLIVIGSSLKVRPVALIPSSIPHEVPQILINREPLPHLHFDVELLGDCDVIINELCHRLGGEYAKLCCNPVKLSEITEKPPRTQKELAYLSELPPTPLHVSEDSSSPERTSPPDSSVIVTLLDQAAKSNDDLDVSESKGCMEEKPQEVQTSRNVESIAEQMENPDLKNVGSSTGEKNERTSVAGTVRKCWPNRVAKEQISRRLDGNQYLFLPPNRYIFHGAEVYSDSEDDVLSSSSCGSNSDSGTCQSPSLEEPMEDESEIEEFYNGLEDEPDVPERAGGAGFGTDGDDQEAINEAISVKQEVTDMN
Method: as §1

SIRT7 [3] = molecular target: T2, SIRT7; assay: Bio-layer interferometry (BLI) binding assay; conditions: 0-40 μM, PBST pH 7.4
Method: The binding affinity of SIRT1/2/6/7 with YZL-51N was determined using Super Streptavidin (SSA) biosensors in an Octet Red 96 instrument (ForteBio Inc., Menlo Park, CA, United States). Briefly, the biotinylated SIRT1/2/6/7 proteins were immobilized onto the surface of SSA biosensors. Increasing concentrations of YZL-51N were allowed to flow through the chips at room temperature in PBST buffer (pH 7.4). Assays were performed in black 96-well flat bottom plates on a shaker at 1000 r/min. The association and dissociation of YZL-51N with SIRT1/2/6/7 were measured for 300 s. Kinetic parameters and affinities were calculated from a non-linear global fit of the data between YZL-51N and SIRT1/2/6/7 using Octet Data Analysis software version 7.0 (Fortebio).

HCT116 xenograft = HCT116 xenograft model; type: in vivo, BALB/c nude mice
Method: For the xenograft models, HCT116 cells (5 x 10^6 in 100 μL of PBS) were inoculated subcutaneously into the dorsal flank of the 4-week-old male BALB/c nude mice. The mice were randomly divided into control, drug treatment, IR treatment and combination treatment groups. Control group was injected with PBS. Drug treatment group was treated with 15 mg/kg YZL-51N every 3 d. In IR treatment group, the tumor site was irradiated with 3 Gy every 3 d. The combination group was treated with both 15 mg/kg YZL-51N and 3 Gy IR. The tumor size was estimated from the measurement of the longest diameter across the tumor and the corresponding perpendicular diameter. Tumor volumes were assessed on indicated days by a caliper and calculated using the formula: volume = (length x width[2])/2.

SIRT1/2/3/5/6 = assay: Sirtuin deacetylation assay (fluorometric ELISA kit), other sirtuins; type: biochemical, human; conditions: different concentrations
Text: To determine the selectivity of YZL-51N, we assessed its inhibitory activity against recombinant human sirtuins expressed in E. coli through deacetylation assays in vitro (Figures 2A and 2B). […] We next validated the direct interaction between YZL-51N and SIRT1/2/6/7 using bio-layer interferometry (BLI) assays to compare their binding affinities. […] To gain insights into the ability of YZL-51N to affect sirtuin thermostability, we conducted protein thermal shift assays. At a concentration of 10 μM, YZL-51N caused shifts in the melting curves for SIRT7, SIRT6 and SIRT1 of 2.86°C, 1.0°C and 0.45°C (Figures S7A–S7C). In addition, we observed a dose-dependent increase in the ΔTm for SIRT7 following YZL-51N treatment (Figures 2F and 2G). Taken together, these findings confirm that YZL-51N is a selective inhibitor of SIRT7.
Deacetylase activity of 10 μg purified SIRT proteins was assessed using the Sirtuin Activity Assay Kit (BioVision, Cat#K324-100, USA) according to the manufacturer’s instructions. The fluorescence intensity (Ex/Em = 400/505 nm) was measured using a microplate reader (Synergy H4 Hybrid Reader, Biotek) in the end-point mode.

SIRT6 [4] = molecular target: T1, SIRT6; assay: Cellular thermal shift assay in HCT116 cell lysates; type: binding; set-up: endogenous in cells; host or cells: HCT116; conditions: 20 μM
Method: Cellular thermal shift assays were performed according to previously reported methods with some modifications.[66] Briefly, HCT116 cells were lysed with RIPA buffer and incubated with 20 μM YZL-51N or DMSO for 1 h on ice. Subsequently, cell lysates were divided into 70 μL aliquots and heated individually at different temperatures for 4 min following by cooling on ice. The heated lysates were centrifuged, and 50 μL supernatants were taken for SDS-PAGE and immunoblotting analysis with the indicated antibodies.

T1 sequence (Q8N6T7 whole entry): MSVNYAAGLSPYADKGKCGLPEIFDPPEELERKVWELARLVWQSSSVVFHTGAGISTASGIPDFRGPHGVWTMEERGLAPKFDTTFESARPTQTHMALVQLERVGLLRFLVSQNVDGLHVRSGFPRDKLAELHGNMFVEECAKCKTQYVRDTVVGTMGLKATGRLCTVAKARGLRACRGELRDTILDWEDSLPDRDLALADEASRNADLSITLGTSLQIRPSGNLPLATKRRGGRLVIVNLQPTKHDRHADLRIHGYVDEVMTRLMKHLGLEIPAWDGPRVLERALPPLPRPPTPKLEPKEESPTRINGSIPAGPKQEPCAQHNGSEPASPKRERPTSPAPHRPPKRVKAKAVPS

Shift in the melting curve (SIRT6 [1]): 1.0 °C | Shift in the melting curve (SIRT7 [2]): 2.86 °C | Shift in the melting curve (SIRT1): 0.45 °C | Kd (SIRT7 [3]): 3.3 µM | Inhibition of deacetylase activities of other sirtuins (SIRT1/2/3/5/6): did not inhibit | Effect on the melting curve (SIRT6 [4]): no obvious effect
SMILES: COC(=O)/C(=C\C(=O)c1ccc(O)c(O)c1)c1ccc(O)c(O)c1 [YZL-51N]
Tumor therapy, co-treatment with IR (HCT116 xenograft; 15 mg/kg YZL-51N and 3 Gy IR every 3 days): more effective | Tumor volume (HCT116 xenograft; 15 mg/kg every 3 days, alone): reduction on the tumor volume
